# In article PMC11062899, “De novo development of small cyclic peptides that are orally bioavailable” (Nature Chemical Biology, 2023):
# Where “and” joins values, the source holds several entries; their conditions need not be identical. Equal entries are not always repeated. Where two headings read alike, the source gives them in different places.
# Experiments:
# [1] = Passive artificial membrane permeability (PAMPA); settings: for PAMPA permeability: % permeability: acceptor concentration relative to equilibrium;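 for PAMPA permeability: % permeability: acceptor concentration relative to equilibrium after 12–18 h at 50 µM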
# [2] = Metabolic stability in rat liver microsomes (RLMs); settings: for half-life at 10 μM / microsomal CLint at 10 μM: rat
# human α-thrombin = human α-thrombin (Homo sapiens, UniProt P00734); assay: Protease inhibition, Ki for human α-thrombin (fluorogenic substrate Z-Gly-Gly-Arg-AMC); format: biochemical; settings: for slope normalized to DMSO, human alpha thrombin inhibition: replicates R1-R3
# Summary of the method: (§1)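 Ki derived through Cheng–Prusoff from IC50s (four-parameter logistic fit) against activity of peptide-free controls. Product fluorescence was read every 3 min over 30 min at 25 °C, substrate Z-Gly-Gly-Arg-AMC at 50 μM. Enzyme was 2 nM human or 3 nM rat α-thrombin, pH 7.4 buffer.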
# rat α-thrombin = biological target: T1, rat α-thrombin (Rattus norvegicus, UniProt P18292); assay: Protease inhibition, Ki for rat α-thrombin (fluorogenic substrate Z-Gly-Gly-Arg-AMC); format: biochemical; settings: for slope normalized to DMSO, rat alpha thrombin inhibition: replicates R1-R3
# T1 construct: rat α-thrombin (Molecular Innovations) were used at final concentrations of 2 nM and 3 nM; purchased Molecular Innovations
# Summary of the method: as §1
# [3] = rat liver microsomes, individual replicates R1-R3, incubation volume 400 ul, protein 0.5 mg/ml
smiles,measurement,setting,value
"C[C@]12CC[C@H]3[C@@H](CCC4=CC(=O)CC[C@@]43C)[C@@H]1CC[C@@H]2O [Testosterone, reference compound]",PAMPA permeability: % permeability,"[1]; 50 μM, 12–18 h",88.2 ± 1.1%
same,TIC value at 0 min,"[2]; rat liver microsomes, 0 min incubation, LCMS TIC, individual replicates R1-R3, protein 0.5 mg/ml, Ox (+16)/(+32), deMe (-14)/(-28) = mass adducts (metabolites)",365657 (2×) and 448878
same,TIC value at 5 min,"[2]; rat liver microsomes, 5 min incubation, LCMS TIC, individual replicates R1-R3, protein 0.5 mg/ml",76968 and 89225 and 92782
same,TIC value at 15 min,"[2]; rat liver microsomes, 15 min incubation, LCMS TIC, individual replicates R1-R3, protein 0.5 mg/ml",0
same,TIC value at 30 min,"[2]; rat liver microsomes, 30 min incubation, LCMS TIC, individual replicates R1-R3, protein 0.5 mg/ml",0
same,TIC value at 60 min,"[2]; rat liver microsomes, 60 min incubation, LCMS TIC, individual replicates R1-R3, protein 0.5 mg/ml",0
same,Half Life,"[2]; rat liver microsomes, individual replicates R1-R3",2.29 min and 2.19 min
same,RLM CL,[2]; [3],606.56 ul/min/mg protein and 632.01 ul/min/mg protein
same,half-life at 10 μM,"[2]; microsomes, pH 7.4, Half Life Mean, rat liver microsomes, mean of R1-R3",2.23 min
same,half-life at 10 μM,"[2]; microsomes, pH 7.4, Half Life, rat liver microsomes, individual replicates R1-R3",2.21 min
same,half-life at 10 μM,"[2]; microsomes, pH 7.4, Metabolic stability: Half life T1/2 (min), RLMs, mean and SD, three measurements",2.2 ± 0.1 min
same,microsomal CLint at 10 μM,"[2]; microsomes, pH 7.4, Metabolic stability: RLM CL (ul/min/mg), RLMs, mean and SD, three measurements",620 ± 10 µL/min/mg
same,microsomal CLint at 10 μM,"[2]; microsomes, pH 7.4, RLM CL Mean, rat liver microsomes, mean of R1-R3",622 µL/min/mg
same,microsomal CLint at 10 μM,"[2]; microsomes, pH 7.4, RLM CL, rat liver microsomes, individual replicates R1-R3, incubation volume 400 ul, protein 0.5 mg/ml",626 µL/min/mg
"CC(=O)CC(c1ccccc1)c1c(O)c2ccccc2oc1=O (stereo not drawn) [Warfarin, warfarin, reference compound]",PAMPA permeability: % permeability,"[1]; 50 μM, 12–18 h",50 ± 5%
same,Papp at 50 μM,"[1]; PAMPA, pH 7.4, PAMPA permeability: logPapp, 50 μM, 12–18 h",4.57 ×10⁻⁶ cm/s
same,Papp at 50 μM,"[1]; PAMPA, pH 7.4, apparent permeability logPapp (PAMPA), 50 μM, pH 7.4, 12–18 h",5.01 ×10⁻⁶ cm/s
same,Permeability% Average,"[1]; PAMPA, average of R1-R3",50.0%
same,Permeability% R1,"[1]; PAMPA, replicate R1, TIC of top well sample relative to sample at theoretical equilibrium",48.28%
same,Permeability% R3,"[1]; PAMPA, replicate R3, TIC of top well sample relative to sample at theoretical equilibrium",55.67%
same,CL (ul/min/mg protein) R1,"[2]; RLM CL, replicate R1",3.761 ul/min/mg protein
same,RLM CL,[2]; [3],2.64 ul/min/mg protein
same,microsomal CLint at 10 μM,"[2]; rat liver microsomes, pH 7.4",2 µL/min/mg
O=C1C[C@H]2CCCN2C(=O)[C@H](Cc2ccccc2)NC(=O)[C@@H](NC(=O)c2ccc(Cl)cc2F)CCC=CCCCCN1 [compound 45],Ki,"human α-thrombin; average of R1-R3, read-out: Ki Average, human alpha thrombin inhibition",204 nM
same,IC50,"human α-thrombin; individual replicates R1-R3, read-out: IC50, human alpha thrombin inhibition",273 nM and 252 nM and 268 nM
same,Ki,"human α-thrombin; individual replicates R1-R3, read-out: Ki, human alpha thrombin inhibition",210 nM (2×) and 194 nM (2×) and 207 nM (2×)
same,"slope normalized to DMSO, human alpha thrombin inhibition",human α-thrombin; peptide 1.00E+02 uM,11.3 and 11.6 and 10.6
same,"slope normalized to DMSO, human alpha thrombin inhibition",human α-thrombin; peptide 1.19E-05 uM,102.6 and 106.2 and 105.7
same,"slope normalized to DMSO, human alpha thrombin inhibition",human α-thrombin; peptide 1.22E-02 uM,98.0 and 95.4 and 97.5
same,"slope normalized to DMSO, human alpha thrombin inhibition",human α-thrombin; peptide 1.25E+01 uM,13.9 and 11.8 and 11.3
same,"slope normalized to DMSO, human alpha thrombin inhibition",human α-thrombin; peptide 1.53E-03 uM,101.7 and 103.3 and 104.5
same,"slope normalized to DMSO, human alpha thrombin inhibition",human α-thrombin; peptide 1.56E+00 uM,26.6 and 25.5 (2×)
same,"slope normalized to DMSO, human alpha thrombin inhibition",human α-thrombin; peptide 1.91E-04 uM,103.0 and 99.2 and 105.0
same,"slope normalized to DMSO, human alpha thrombin inhibition",human α-thrombin; peptide 1.95E-01 uM,64.4 and 63.8 and 63.5
same,"slope normalized to DMSO, human alpha thrombin inhibition",human α-thrombin; peptide 2.38E-05 uM,102.9 and 103.4 and 104.0
same,"slope normalized to DMSO, human alpha thrombin inhibition",human α-thrombin; peptide 2.44E-02 uM,93.3 and 91.7 and 93.0
same,"slope normalized to DMSO, human alpha thrombin inhibition",human α-thrombin; peptide 2.50E+01 uM,12.2 and 11.9 and 11.6
same,"slope normalized to DMSO, human alpha thrombin inhibition",human α-thrombin; peptide 3.05E-03 uM,101.3 and 101.9 and 102.4
same,"slope normalized to DMSO, human alpha thrombin inhibition",human α-thrombin; peptide 3.12E+00 uM,19.4 (2×) and 18.4
same,"slope normalized to DMSO, human alpha thrombin inhibition",human α-thrombin; peptide 3.81E-04 uM,103.1 and 102.3 and 104.4
same,"slope normalized to DMSO, human alpha thrombin inhibition",human α-thrombin; peptide 3.91E-01 uM,49.6 and 45.7 and 49.0
same,"slope normalized to DMSO, human alpha thrombin inhibition",human α-thrombin; peptide 4.77E-05 uM,101.9 and 103.1 and 105.2
same,"slope normalized to DMSO, human alpha thrombin inhibition",human α-thrombin; peptide 4.88E-02 uM,85.5 and 84.9 and 86.4
same,"slope normalized to DMSO, human alpha thrombin inhibition",human α-thrombin; peptide 5.00E+01 uM,11.7 and 11.4 and 7.8
same,"slope normalized to DMSO, human alpha thrombin inhibition",human α-thrombin; peptide 6.10E-03 uM,99.7 and 99.5 and 102.0
same,"slope normalized to DMSO, human alpha thrombin inhibition",human α-thrombin; peptide 6.25E+00 uM,15.9 and 15.6 and 14.9
same,"slope normalized to DMSO, human alpha thrombin inhibition",human α-thrombin; peptide 7.63E-04 uM,102.4 (2×) and 103.3
same,"slope normalized to DMSO, human alpha thrombin inhibition",human α-thrombin; peptide 7.81E-01 uM,36.6 and 35.0 and 35.1
same,"slope normalized to DMSO, human alpha thrombin inhibition",human α-thrombin; peptide 9.54E-05 uM,103.4 and 102.3 and 101.0
same,"slope normalized to DMSO, human alpha thrombin inhibition",human α-thrombin; peptide 9.77E-02 uM,76.3 and 76.5 and 77.1
same,Ki,"rat α-thrombin; average of R1-R3, read-out: Ki Average, rat alpha thrombin inhibition",36.4 nM
same,IC50,"rat α-thrombin; individual replicates R1-R3, read-out: IC50, rat alpha thrombin inhibition",67 nM and 66.1 nM and 64.2 nM
same,Ki,"rat α-thrombin; individual replicates R1-R3, read-out: Ki, rat alpha thrombin inhibition",37.1 nM and 36.6 nM and 35.6 nM
same,"slope normalized to DMSO, rat alpha thrombin inhibition",rat α-thrombin; peptide 1.00E+02 uM,6.9 and 7.8 and 7.9
same,"slope normalized to DMSO, rat alpha thrombin inhibition",rat α-thrombin; peptide 1.19E-05 uM,99.4 and 99.8 and 100.7
same,"slope normalized to DMSO, rat alpha thrombin inhibition",rat α-thrombin; peptide 1.22E-02 uM,80.5 and 81.1 and 80.7
same,"slope normalized to DMSO, rat alpha thrombin inhibition",rat α-thrombin; peptide 1.25E+01 uM,8.5 and 8.3 (2×)
same,"slope normalized to DMSO, rat alpha thrombin inhibition",rat α-thrombin; peptide 1.53E-03 uM,95.1 and 94.7 (2×)
same,"slope normalized to DMSO, rat alpha thrombin inhibition",rat α-thrombin; peptide 1.56E+00 uM,12.6 and 12.3 and 12.5
same,"slope normalized to DMSO, rat alpha thrombin inhibition",rat α-thrombin; peptide 1.91E-04 uM,97.1 (2×) and 95.3
same,"slope normalized to DMSO, rat alpha thrombin inhibition",rat α-thrombin; peptide 1.95E-01 uM,34.2 and 33.8 and 33.2
same,"slope normalized to DMSO, rat alpha thrombin inhibition",rat α-thrombin; peptide 2.38E-05 uM,93.5 and 98.9 and 98.6
same,"slope normalized to DMSO, rat alpha thrombin inhibition",rat α-thrombin; peptide 2.44E-02 uM,71.8 and 70.1 and 71.0
same,"slope normalized to DMSO, rat alpha thrombin inhibition",rat α-thrombin; peptide 2.50E+01 uM,8.3 and 8.0 and 8.8
same,"slope normalized to DMSO, rat alpha thrombin inhibition",rat α-thrombin; peptide 3.05E-03 uM,90.8 and 91.5 and 91.2
same,"slope normalized to DMSO, rat alpha thrombin inhibition",rat α-thrombin; peptide 3.12E+00 uM,10.1 (2×) and 10.3
same,"slope normalized to DMSO, rat alpha thrombin inhibition",rat α-thrombin; peptide 3.81E-04 uM,97.2 and 95.5 and 95.9
same,"slope normalized to DMSO, rat alpha thrombin inhibition",rat α-thrombin; peptide 3.91E-01 uM,22.7 and 22.8 and 22.5
same,"slope normalized to DMSO, rat alpha thrombin inhibition",rat α-thrombin; peptide 4.77E-05 uM,97.5 and 97.4 and 98.2
same,"slope normalized to DMSO, rat alpha thrombin inhibition",rat α-thrombin; peptide 4.88E-02 uM,57.9 and 58.1 and 57.0
same,"slope normalized to DMSO, rat alpha thrombin inhibition",rat α-thrombin; peptide 5.00E+01 uM,8.1 (2×) and 8.0
same,"slope normalized to DMSO, rat alpha thrombin inhibition",rat α-thrombin; peptide 6.10E-03 uM,75.2 and 85.9 and 86.8
same,"slope normalized to DMSO, rat alpha thrombin inhibition",rat α-thrombin; peptide 6.25E+00 uM,9.3 (2×) and 10.3
same,"slope normalized to DMSO, rat alpha thrombin inhibition",rat α-thrombin; peptide 7.63E-04 uM,94.5 (2×) and 95.4
same,"slope normalized to DMSO, rat alpha thrombin inhibition",rat α-thrombin; peptide 7.81E-01 uM,16.5 and 16.1 and 16.2
same,"slope normalized to DMSO, rat alpha thrombin inhibition",rat α-thrombin; peptide 9.54E-05 uM,96.4 and 97.0 and 98.4
same,"slope normalized to DMSO, rat alpha thrombin inhibition",rat α-thrombin; peptide 9.77E-02 uM,46.4 and 46.1 and 46.7
same,PAMPA permeability: % permeability,"[1]; 50 μM, 12–18 h",66 ± 14%
same,Permeability% (single replicates R1–R3),"[1]; 50 μM, 12 h (Fig. 6d)",56.67% and 58.98% and 81.87%
same,Permeability% Average,"[1]; 50 μM, 12 h (Fig. 6d)",65.8%
same,Papp at 50 μM,"[1]; PAMPA, pH 7.4",10.7 ×10⁻⁶ cm/s
